Reference: patent US9439415B2, “Method for reducing damage by harmful organisms in corn cultivation” (priority 2012, dated 2016)

How the values were obtained:
Agriotes spp. = assay: Field furrow spray test, mortality of corn plants from damage by Agriotes spp. (Example 9); type: in vivo; conditions: 50 g/ha, furrow spray 100 L/ha, 34 days after treatment, average of four sections, non-treatment section 16.35
Protocol: A land was ditched at intervals of 80 cm, a predetermined amount of a water-diluted liquid of an esfenvalerate emulsifiable concentrate (using 25 g/L of an EC preparation, trade name: Sumialpha 2.5 EC, manufactured by Philagro) or a water-diluted liquid of a lambda-cyhalothrin SC (using 100 g/L of a SC preparation, trade name: KAPATE ZEON, manufactured by SYNGENTA) was prepared so that the applied amount of an effective component was the amount described in Table 4, and the furrow was spray-treated with the liquid at a spray amount of 100 L/ha. Then, the furrow was seeded with corn (Zea Mays, variety name: Kubrik), and a soil on the side of the furrow was gathered together to close the furrow. A seeding density of corn was 87500 seeds/ha. They were defined as example sections 16 and 17.
For comparison, a non-treatment section, which was seeded with corn in the same manner as in the example sections except that a treatment with a chemical was not performed, was provided. […]
34 days after the treatment with a chemical, the number of plants of corn grown in each of the example sections 16 and 17 and the non-treatment section were investigated, a mortality of plants of corn died because of the damage by Agriotes spp. was calculated in accordance with the following equation, and then an average mortality of the four investigation sections was determined. […]

[1] = system: Diabrotica virgifera virgifera and Agriotes lineatus; assay: Field furrow application test, lodge rate of corn due to damage by Diabrotica virgifera virgifera and Agriotes lineatus (Examples 4-8, 10, 11); type: in vivo; conditions: 165 days after application, versus non-treatment section
From the text: A chemical fertilizer (N:P:K=15:15:15) is applied to the soil surface of a cultivated land at 300 kg/ha, and the cultivated land is then plowed.
7 days after fertilization, for suppressing generation of weeds, the soil surface of the whole cultivated land is spray-treated with a mixed liquid containing thiencarbazone-methyl and isoxaflutole, each of which being a herbicide, and cyprosulfamide which is a safener at 150 L/ha so that the application amounts of thiencarbazone-methyl, isoxaflutole and cyprosulfamide are 9.2 g/ha, 23 g/ha and 15 g/ha, respectively. […]
17 days after application of clothianidin and tefluthrin, the number of plants of corn germinated is investigated, with central two rows of four rows of seeded furrows as an investigation section, for the treatment section and the non-treatment section. 165 days after application of clothianidin and tefluthrin, the number of plants of corn lodged due to damage by Diabrotica virgifera virgifera and Agriotes lineatus in the furrows of the treatment section and the non-treatment section, for which the number of plants of corn germinated is investigated, is investigated, a lodge rate is calculated in accordance with the following equation, and then an average lodge rate for the four investigation sections is determined. […]

Row | SMILES | Average mortality (%) (Agriotes spp.) | Lodge rate (%) ([1]; Example 11: water-diluted lambda-cyhalothrin SC in furrow, 100 g/ha) | Lodge rate (%) ([1]; Example 10: water-diluted Sumialpha 2.5 EC in furrow, esfenvalerate 100 g/ha)
1 | CC1(C)[C@H](C(=O)O[C@H](C#N)c2cccc(Oc3ccccc3)c2)[C@@H]1/C=C(\Cl)C(F)(F)F (racemic) [Lambda-cyhalothrin] | 3.35 | low lodge rate as compared to the non-treatment section | –
2 | CC(C)[C@H](C(=O)O[C@H](C#N)c1cccc(Oc2ccccc2)c1)c1ccc(Cl)cc1 [Esfenvalerate] | 4.85 | – | low lodge rate as compared to the non-treatment section
